Holding throughout (format): cell-based, SD rats
The test system of one test is p‐AKT. As to the kind of experiment: Western blotting, p-AKT/AKT. To be noted: for rate of p-AKT to AKT: mean ± SD, n = 3. The method, then: (§1) NSCs at 1 × 10^6 cells/ml in 6‐well plate were treated with IL‐6 and TAT‐KIR as above. Cells were harvested at 3 h, 6 h, 12 h, 24 h, or 7 days after treatment. Cells were suspended in lysis buffer containing 150 μl RIPA (#89900, Pierce) protease and phosphatase inhibitor cocktail (#4693159001 and 04906845001, Roche). Cell lysates were incubated on ice for 20 min and centrifuged at 12,000 rpm for 15 min at 4°C. The proteins in supernatant were separated by electrophoresis with 10%–12% sodium dodecyl sulfate polyacrylamide gel (SDS‐PAGE) and then transferred onto 0.22 μm polyvinylidene difluoride membranes (PVDF; #IPVH00010, Millipore). The membranes were blocked in 5% BSA dissolved in Tris‐buffered saline containing 0.1% Tween‐20 for 2 h at room temperature and then were incubated overnight at 4°C with primary antibodies, including GFAP (#ab7260, Abcam, 1:1000), β Tublin III (#MAB1637, Millipore, 1:1000), and STAT3, p‐STAT3, P38, p‐P38, ERK1/2, p‐ERK1/2, AKT, p‐AKT, JNK2, p‐JNK2(#4904, 9145, 8690, 4511, 4695, 9101, 4685, 4060, 9258, 4668, Cell Signaling, all in 1:1000) and β‐actin (#A01263, Boster Biological Technology, 1:20,000). After washing, the membranes were incubated with the secondary antibodies (HRP conjugated anti‐rabbit or anti‐mouse IgG) for 2 h at room temperature. The membranes were visualized by an enhanced chemiluminescence (ECL) kit. All data were analyzed with Image J (version 1.61).
In general terms: In western blotting, separated proteins are transferred to a membrane and probed.

A further test has as its system GFAP. In words: Western blotting, GFAP expression. The following applies: mean ± SD, n = 3. The method, then: as §1, with “The membranes were visualized by an enhanced chemiluminescence (ECL) kit.” left out
In test [1] the test system is NSCs. In words: Cell cycle analysis by FACS, proliferation index. The following applies: third day, mean ± SD, n = 3. The method, then: (§2) NSCs survival and growth were analyzed by using cell counting kit‐8 (#CK04, Dojindo, CCK‐8). NSCs were randomly allocated in the Control, TAT‐scramble, TAT‐KIR, IL‐6, and TAT‐KIR+IL6 groups. All NSCs seeded into 96‐well plates at 5 × 10^4 cells/ml and cultured in growth medium for 24 h. IL‐6 in the concentration of 100 ng/ml was applied to mimic inflammatory condition. Thirty minutes later, TAT‐KIR or TAT‐scramble was added into the culture system. Cell viability of each group was observed by Universal Microplate Spectrophotometer (QuantTM, BioTek) at first, third, and fifth day after peptide administration (Figure 3A). Optical density (OD) values at 450 nm were measured. Immunocytochemistry staining with ki67 (#ab16667, Abcam, 1:300) was used to assess NSC proliferation. Cell cycles were analyzed by FACS at third day after peptide administration. The rates of cells in G0/G1, S, and G2/M were measured, and the proliferation index (PI) {PI = (S + G2/M)/([…] + S + G2/M) × 100%} was calculated, respectively. In each independent experiment, the procedures were carried out in triplicate.
On the technique in general: A flow cytometer gives signals particle by particle.

The next test deals with β tubulin III. In words: Western blotting, β tubulin III expression. To be noted: mean ± SD, n = 3. The method, then:
as §1, with “The membranes were visualized by an enhanced chemiluminescence (ECL) kit.” left out

The next test has as its system p‐ERK1/2. As to the kind of experiment: Western blotting, p-ERK1/2 / ERK1/2. To be noted: mean ± SD, n = 3. The method, then: as §1, with “The membranes were visualized by an enhanced chemiluminescence (ECL) kit.” left out
In another test the test system is p‐STAT3. As to the kind of experiment: Western blotting, p-STAT3/STAT3. The following applies: for rate of p-STAT3 to STAT3: differentiation medium, 7 days, mean ± SD, n = 3. The method, then:
as §1

Test [2] concerns NSCs. In words: NSCs differentiation, immunostaining of GFAP and β tubulin III positive cells. The following applies: 7 DIV, mean ± SD, n = 9. The method, then:
NSCs at 1 × 10^5 cells/ml were seeded into 24‐well plates allocated randomly in Control, TAT‐KIR, IL‐6, and TAT‐KIR+IL6 groups. After 24 h culture with differentiation media, IL‐6 and TAT‐KIR were added into the medium as above order and reapplied every other day (Figure 4A). Cells were harvested at 7 DIV. Immunocytochemical staining was performed with different antibodies, including GFAP and β Tublin III. […] Then the numbers of GFAP positive and β Tubulin III positive cells were counted, and the percentages of differentiated cells were calculated by using Image J (version 1.61).

Test [3] deals with NSCs. As to the kind of experiment: Ki67 immunocytochemistry, NSC proliferation. To be noted: 3 days, mean ± SD. The method, then: as §2
A further test relates to p‐JNK2. In words: Western blotting, p-JNK2/JNK2. To be noted: mean ± SD, n = 3. The method, then:
as §1

[4] abbreviates: substance alone, 7 days differentiation.
[5] abbreviates: substance alone, PI = (S + G2/M)/(all phases) × 100%.
Where [6] appears, read: substance alone, differentiation medium.
[7] abbreviates: substance alone, growth medium, IL-6 100 ng/ml, TAT-KIR 3 μM, n = 9 figures from three experiments.
The mark [8] stands for this setting: substance alone, 3 h after treatment.
Where [9] appears, read: TAT-KIR together with IL-6, 7 days differentiation.
Where [10] appears, read: TAT-KIR together with IL-6, treatment for 3 h.
[11] abbreviates: TAT-KIR together with IL-6 100 ng/ml.

Regarding “IL‐6: inflammatory cytokine, 100 ng/ml applied to mimic inflammatory condition [reference compound]”, in the test with p‐AKT (setting [4]), the “rate of p-AKT to AKT” value is 1.05 ± 0.081. Besides, in the test on GFAP (setting [4]), the “GFAP expression (Western blotting)” value was found to be 1.30 ± 0.127. For the same substance, the “proliferation index (PI)” value in the test on NSCs [1] (setting [5]) came out at 34.61 ± 4.12%. In the test with NSCs [1] (substance alone), the “percentage of cells in G0/G1 phase” value stood at 65.39 ± 4.12% and the “percentage of cells in S phase” value was 28.14 ± 2.79%. Further, the “β tubulin III expression (Western blotting)” value in the test with β tubulin III (setting [4]) came out at 1.22 ± 0.044. Moreover, the “rate of p-ERK1/2 to ERK1/2” value in the test with p‐ERK1/2 (setting [4]) was found to be 0.75 ± 0.070. Further, in the test on p‐STAT3 (substance alone), the “rate of p-STAT3 to STAT3” value is listed as 0.88 ± 0.093. Also, in the test with NSCs [2] (setting [6]), the “percentage of GFAP positive cells (astrocytic differentiation)” value was found to be 45.72 ± 7.50% and the “percentage of β tubulin III positive cells (neuronal differentiation)” value is on record as 32.33 ± 5.68%. For the same substance, in the test on NSCs [3] (setting [7]), the “percentage of Ki67 positive proliferating cells (Ki67/DAPI)” value was 54.33 ± 10.29%. In the test with p‐JNK2 (setting [8]), the p-JNK/JNK was 0.54 ± 0.056. In the test on p‐JNK2 (substance alone, 6 h after treatment), this substance came in with a p-JNK/JNK of 0.67 ± 0.062. Moreover, the “rate of p-JNK2 to JNK2” value with p‐JNK2 (setting [4]) is listed as 0.63 ± 0.049.
In the case of RKKRRQRRR‐LR‐LKTFSSKSEYQL‐V [TAT‐KIR], in the test on p‐AKT (setting [9]), the “rate of p-AKT to AKT” value stood at 0.87 ± 0.037. For the same substance, the “p-AKT expression of IL-6-induced NSCs” value in the test on p‐AKT (setting [10]) is listed as “dramatically reduced”. In addition, the “GFAP expression (Western blotting)” value in the test with GFAP (setting [9]) amounted to 0.88 ± 0.091. The entries for the “percentage of cells in G0/G1 phase” value with NSCs [1] (setting [11]) and in the test on NSCs [1] (substance alone) were 73.18 ± 3.04% and 85.66 ± 1.98%, respectively. In addition, the “percentage of cells in S phase” value with NSCs [1] (setting [11]) amounted to 19.31 ± 3.32%; in the test on NSCs [1] (substance alone), 9.56 ± 0.22%. Further, the “proliferation index (PI)” value stood at 26.82 ± 3.04% in the test with NSCs [1] (setting [11]) and 14.34 ± 1.98% in the test with NSCs [1] (setting [5]). Also, the “β tubulin III expression (Western blotting)” value with β tubulin III (setting [9]) is 1.21 ± 0.025. In addition, the “rate of p-ERK1/2 to ERK1/2” value with p‐ERK1/2 (setting [9]) came to 0.68 ± 0.041. The “rate of p-STAT3 to STAT3” value in the test with p‐STAT3 (setting [11]) is on record as 0.61 ± 0.025; in the test on p‐STAT3 (substance alone), “did not affect”. Also, the “p-STAT3 expression of IL-6-induced NSCs” value in the test with p‐STAT3 (setting [10]) is listed as “dramatically reduced”. Also, the “percentage of GFAP positive cells (astrocytic differentiation)” value in the test with NSCs [2] (setting [11]) came to 36.78 ± 6.81%; in the test on NSCs [2] (setting [6]), 30.67 ± 4.66%. Also, the “percentage of β tubulin III positive cells (neuronal differentiation)” value was determined as 30.33 ± 4.39% in the test with NSCs [2] (setting [11]) and 26.78 ± 4.79% with NSCs [2] (setting [6]). The “percentage of Ki67 positive proliferating cells (Ki67/DAPI)” value is recorded as 41.33 ± 7.72% with NSCs [3] (TAT-KIR 3 μM applied together with IL-6 100 ng/ml, n = 9) and 20.67 ± 3.74% in the test on NSCs [3] (setting [7]). The “rate of p-JNK2 to JNK2” value with p‐JNK2 (setting [9]) was 0.63 ± 0.042; in the test with p‐JNK2 (setting [4]), “increased trend”. The p-JNK/JNK is listed as 0.30 ± 0.040 with p‐JNK2 (setting [8]) and 0.50 ± 0.090 in the test with p‐JNK2 (substance alone, 12 h after treatment).

The values are drawn from publication PMC9804055, “Kinase inhibit region of SOCS3 attenuates IL6‐induced proliferation and astrocytic differentiation of neural stem cells via cross talk between signaling pathways” (CNS Neuroscience & Therapeutics, 2022).
